In PMC2267855, “Site-directed mutagenesis of Arginine282 suggests how protons and peptides are co-transported by rabbit PepT1” (The International Journal of Biochemistry & Cell Biology, 2008):
Changes are numbered by the printed parent chain. Where a SMILES comes first, the peptide text is derived from it.

Experiments:
[1] = biological target: T1, R282E-PepT1 (Oryctolagus cuniculus, UniProt P36836, R282E); experiment: Inhibition of [3H]-D-Phe-L-Gln uptake into Xenopus oocytes expressing R282E-PepT1 (competition, Ki); format: cell-based, rabbit; conditions: pHout 5.5, 0.4 μM [3H]-D-Phe-L-Gln
T1 construct: expressed in transfected cells; host or cells: Xenopus laevis oocytes injected with cRNA
T1 sequence (P36836 1-707 R282E): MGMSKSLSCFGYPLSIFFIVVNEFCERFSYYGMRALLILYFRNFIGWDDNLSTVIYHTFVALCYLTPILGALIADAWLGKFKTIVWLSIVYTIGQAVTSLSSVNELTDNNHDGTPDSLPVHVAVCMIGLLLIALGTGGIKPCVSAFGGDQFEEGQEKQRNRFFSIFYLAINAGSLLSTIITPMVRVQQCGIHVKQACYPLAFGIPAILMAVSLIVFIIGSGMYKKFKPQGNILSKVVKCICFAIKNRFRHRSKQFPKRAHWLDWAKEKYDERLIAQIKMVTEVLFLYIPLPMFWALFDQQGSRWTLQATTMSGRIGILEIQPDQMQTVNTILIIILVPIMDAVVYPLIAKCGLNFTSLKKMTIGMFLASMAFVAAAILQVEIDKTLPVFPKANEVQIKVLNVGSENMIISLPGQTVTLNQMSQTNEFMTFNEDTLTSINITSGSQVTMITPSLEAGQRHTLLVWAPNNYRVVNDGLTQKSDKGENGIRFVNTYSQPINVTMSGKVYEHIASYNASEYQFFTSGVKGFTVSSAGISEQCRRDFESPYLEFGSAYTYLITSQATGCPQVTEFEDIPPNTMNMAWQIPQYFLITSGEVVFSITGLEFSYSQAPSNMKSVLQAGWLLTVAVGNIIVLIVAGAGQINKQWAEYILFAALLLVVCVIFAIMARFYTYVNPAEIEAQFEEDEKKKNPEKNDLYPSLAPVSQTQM
Description: Zero-trans uptake of [^3H]-D-Phe-L-Gln (17.4 Ci/mmole, custom synthesised, Cambridge Research Biochemicals, Stockton-on-Tees, UK) was performed as previously described ([Meredith, 2004]). Briefly, 5 oocytes were incubated in 100 μl of uptake medium (95 mM NaCl, 2 mM KCl, 1 mM CaCl2, 0.42 mM MgCl2, 10 mM Tris/Hepes pH 7.4 or Tris/Mes pH 5.5) with tracer (0.4 μM) [^3H]-D-Phe-L-Gln. After incubation, the oocytes were washed sequentially five times in 1 ml of ice-cold 120 mM NaCl solution, lysed individually with 100 μl 2% (w/v) SDS and liquid scintillation counted. As a control non-injected oocytes were also incubated in uptake medium with [^3H]-D-Phe-L-Gln as above.
The affinity of wild-type and mutant PepT1 were assessed by competition studies with 0.4 μM [^3H]-D-Phe-L-Gln and Gly-L-Gln present in the uptake medium in concentrations from 0 to 2 mM using the protocol above, and the Ki calculated using the method of [Deves and Boyd (1989)].

[2] = biological target: T2, R282D-PepT1 (Oryctolagus cuniculus, UniProt P36836, R282D); experiment: Apparent charge:peptide stoichiometry (two-electrode voltage clamp current / radiolabelled uptake), R282D-PepT1; format: cell-based, rabbit; conditions: R282D-PepT1, pHout 5.5, resting membrane potential
T2 construct: expressed in transfected cells; host or cells: Xenopus laevis oocytes injected with cRNA
T2 sequence (P36836 1-707 R282D): T1 sequence (P36836 1-707 R282E) with E282D
Description: Measurements of membrane potential were made by impaling oocytes with a single glass microelectrode (Intra 767 amplifier, WPI, Stevenage, Hertfordshire, UK) perfused in uptake medium (as above) with or without 0.4 μM D-Phe-L-Gln (synthesised in house), 0.6 mM Gly-L-Gln (Sigma, Poole, UK) or 10 mM 4-aminobenzoic acid (4-AMBA, Sigma). Two-electrode voltage clamp (TEVC) was performed by placing oocytes in a 0.1 ml recording chamber and perfusing with uptake solution (pH 5.5 or 7.4) at a rate of 15 ml/min. Oocytes were impaled by two agarose-cushioned microelectrodes filled with 3 M KCl (0.5–2.0 MΩ) and voltage-clamped at −60 mV using a Geneclamp 500B amplifier and PCLAMP 8.1 software (Axon Instruments, CA, USA). The holding potential was stepped from −60 mV over the range of −150 to +50 mV in 10 mV steps, each pulse lasting 100 ms, and returning to −60 mV in between test voltage pulses. Typically traces were filtered at 1 kHz during recording and digitized at 0.5–5 kHz using the DigiData 1200 interface (Axon Instruments, CA, USA). All experiments were carried out at room temperature.
In order to calculate the apparent charge:substrate stoichiometry, the peptide induced current that was measured by two-electrode voltage clamp at the oocyte resting membrane potential was divided by the radiolabelled dipeptide uptake in oocytes from the same preparation. […]

| Structure (SMILES) | Ki [1] [µM] | apparent stoichiometry (charge:peptide), normalised to wild-type 1:1 [2] |
| --- | --- | --- |
| NCC(=O)N[C@@H](CCC(N)=O)C(=O)O [Gly-L-Gln] (H-Gly-Gln-OH) | 350 ± 170 |  |
| NC(=O)CC[C@H](NC(=O)[C@H](N)Cc1ccccc1)C(=O)O [D-Phe-L-Gln] |  | 5 |
